In ChEMBL document CHEMBL1138582, “5-Aminopyrimidin-2-ylnitriles as cathepsin K inhibitors” (Bioorg Med Chem Lett, 2009):

Columns and labels:
[1] = biological target: T1, Cathepsin K (Homo sapiens, UniProt P43235); assay: Inhibition of cathepsin K
T1 sequence (P43235 whole entry): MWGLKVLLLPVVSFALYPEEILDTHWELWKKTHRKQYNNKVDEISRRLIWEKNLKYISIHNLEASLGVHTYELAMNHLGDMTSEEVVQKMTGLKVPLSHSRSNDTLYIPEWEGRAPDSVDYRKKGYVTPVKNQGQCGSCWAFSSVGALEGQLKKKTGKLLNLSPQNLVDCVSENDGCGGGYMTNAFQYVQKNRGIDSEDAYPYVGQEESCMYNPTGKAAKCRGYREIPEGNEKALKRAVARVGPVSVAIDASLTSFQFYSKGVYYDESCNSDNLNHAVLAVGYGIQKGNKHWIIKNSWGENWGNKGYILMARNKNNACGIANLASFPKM

[2] = Electrophilicity, glutathione reactivity assessed as half life; type: physicochemical; design: unit not given here
[3] = biological target: Procathepsin L (Homo sapiens, UniProt P07711); assay: Inhibition of cathepsin L
Sequence of Procathepsin L (P07711 whole entry): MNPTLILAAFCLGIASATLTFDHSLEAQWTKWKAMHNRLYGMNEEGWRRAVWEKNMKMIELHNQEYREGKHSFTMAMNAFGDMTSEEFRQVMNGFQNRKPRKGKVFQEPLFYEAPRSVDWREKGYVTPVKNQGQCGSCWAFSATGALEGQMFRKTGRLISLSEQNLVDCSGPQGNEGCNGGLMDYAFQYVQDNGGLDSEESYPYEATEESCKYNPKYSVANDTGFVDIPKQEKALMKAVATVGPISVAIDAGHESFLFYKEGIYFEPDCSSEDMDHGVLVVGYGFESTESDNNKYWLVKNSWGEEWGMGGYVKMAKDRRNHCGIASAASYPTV

[4] = biological target: Cathepsin S (Homo sapiens, UniProt P25774); assay: Inhibition of cathepsin S
Sequence of Cathepsin S (P25774 whole entry): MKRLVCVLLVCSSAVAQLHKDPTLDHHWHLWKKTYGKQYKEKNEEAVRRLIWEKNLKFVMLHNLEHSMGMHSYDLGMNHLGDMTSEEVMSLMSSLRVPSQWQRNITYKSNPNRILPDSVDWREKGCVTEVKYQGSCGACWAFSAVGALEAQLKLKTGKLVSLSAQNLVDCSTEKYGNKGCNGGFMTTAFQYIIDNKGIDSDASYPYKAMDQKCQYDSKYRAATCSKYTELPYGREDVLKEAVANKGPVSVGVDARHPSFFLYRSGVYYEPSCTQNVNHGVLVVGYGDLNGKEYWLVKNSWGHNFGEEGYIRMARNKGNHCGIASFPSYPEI

[5] = biological target: Cathepsin B (Homo sapiens, UniProt P07858); assay: Inhibition of cathepsin B

Compound	IC50 [1] [nM]	logt1/2 [2]	also measured
N#Cc1nc(NC2CCOC2)c(N)c(N2CCOCC2)n1 (configuration not stated)	340		
CN(C)c1cc(N(C)C)nc(C#N)n1		2.56	
CC(C)CNc1nc(C#N)nc(N2CCOCC2)c1N	18		IC50 [3]: 2000 nM; IC50 [4]: 560 nM
CN(C)c1nc(C#N)nc(Nc2ccccc2)n1		2.07	
CNc1nc(C#N)nc(N(C)C)c1N		3.38	
CCC(C)Nc1nc(C#N)nc(N2CCOCC2)c1N (configuration not stated)	300		
N#Cc1nc(NC2CC3CCC2C3)c(N)c(N2CCOCC2)n1 (configuration not stated)	2		
N#Cc1nc(N2CCCC2)c(N)c(N2CCOCC2)n1	60		
N#Cc1nc(Nc2ccccc2)c(N)c(N2CCOCC2)n1	110		
CC(C)Nc1nc(C#N)nc(N2CCOCC2)c1N	560		
N#Cc1nc(NC2CCCCC2)c(N)c(N2CCOCC2)n1	23		
CC(C)(C)CNc1nc(C#N)nc(N2CCOCC2)c1N	17		IC50 [5]: > 10000 nM; IC50 [3]: > 10000 nM; IC50 [4]: 910 nM
N#Cc1nc(N2CCCCC2)c(N)c(N2CCOCC2)n1	22		
N#Cc1nc(NC2CCCC2)c(N)c(N2CCOCC2)n1	13		
CN(C)c1nc(C#N)nc(Oc2ccccc2)c1N		2.98	
CNc1nc(C#N)nc(N(C)C)c1Br		2.19	
CN(C)c1cc(Nc2ccccc2)nc(C#N)n1		2.12	
COc1c(Nc2ccccc2)nc(C#N)nc1N(C)C		2.31	
CC(C)CNc1nc(C#N)nc(N2CCNCC2)c1N	6		IC50 [5]: 6100 nM; IC50 [3]: 1400 nM; IC50 [4]: 890 nM
COCCNc1nc(C#N)nc(NCC(C)C)c1N	24		
CC(C)CNc1nc(C#N)nc(NC2CCS(=O)(=O)C2)c1N (configuration not stated)	14		
CC(C)CNc1nc(C#N)nc(N2CC(O)C2)c1N	32		
CC(C)CNc1nc(C#N)nc(NCc2nnn[nH]2)c1N	62		
CNc1cc(N(C)C)nc(C#N)n1		2.67	
CN(C)c1nc(C#N)nc(Nc2ccccc2)c1N		3	
CNc1c(Nc2ccccc2)nc(C#N)nc1N(C)C		2.91	
CNc1nc(C#N)nc(N(C)C)c1[N+](=O)[O-]		< 2.08	
CN(C)c1nc(C#N)nc(N(C)C)c1N		3.26	
CC(=O)N1CCN(c2nc(C#N)nc(NCC(C)C)c2N)CC1	9		
